Data on 19 compounds can be found in US9663536B2, “Inhibitors of human immunodeficiency virus replication” (priority 2013, dated 2017).

This test has as its system recombinant NL-Rluc virus. Put plainly: Inhibition of HIV replication (NL-Rluc virus in MT-2 cells, luciferase readout). The class given is cell-based. The conditions noted are these: Human immunodeficiency virus 1, MT2, 120 h.

For the compound `Cc1nc2cc3nn2c(c1[C@H](OC(C)(C)C)C(=O)O)N1CCC(C)(/C=C/CCCCc2cc(F)ccc2Cc2cnc-3s2)CC1` (single isomer, unassigned) [Example 15], the EC50 is 13 nM. Take `Cc1nc2cc3nn2c(c1[C@H](OC(C)(C)C)C(=O)O)N1CCC(C)(CCCCCCOc2ccccc2Cc2cnn-3c2)CC1` [Example 36, (2S)-2-(tert-Butoxy)-2-{4,28-dimethyl-21-oxa-1,5,7,8,10,11-hexaazahexacyclo[26.2.2.1^6,9.1^10,13.0^2,7.0^15,20]tetratriaconta-2,4,6(34),8,11,13(33),15(20),16,18-nonaen-3-yl}acetic acid]: the EC50 came out at 14 nM. The result for `Cc1nc2cc3nn2c(c1[C@H](OC(C)(C)C)C(=O)O)N1CCC(C)(CCCCCOc2cccc(c2)Cc2cnn-3c2)CC1` [Example 39, (2S)-2-(tert-Butoxy)-2-{4,26-dimethyl-20-oxa-1,5,7,8,10,11-hexaazahexacyclo[24.2.2.1^6,9.1^10,13.1^15,19.0^2,7]tritriaconta-2,4,6(33),8,11,13(32),15(31),16,18-nonaen-3-yl}acetic acid] reads 6 nM; that for `Cc1nc2cc3nn2c(c1[C@H](OC(C)(C)C)C(=O)O)N1CCC(C)(/C=C/C=C/CCc2ccccc2Cc2cnc-3s2)CC1` [Example 12, (2S)-2-(tert-Butoxy)-2-[(23E,25E)-4,27-dimethyl-32-thia-1,5,7,8,11-pentaazahexacyclo[25.2.2.1^6,9.1^10,13.0^2,7.0^15,20]tritriaconta-2,4,6(33),8,10,12,15(20),16,18,23,25-undecaen-3-yl]acetic acid], 8 nM. Take `Cc1nc2cc3nn2c(c1[C@H](OC(C)(C)C)C(=O)O)N1CCC(C)(CC/C=C\COc2cccc(c2)Cc2cnn-3c2)CC1` [Example 38]: the EC50 worked out at 22 nM. The result for `Cc1nc2cc3nn2c(c1[C@H](OC(C)(C)C)C(=O)O)N1CCC(C)(CCCCCCc2ccccc2Cc2cnc-3s2)CC1` [Example 14, (2S)-2-(tert-Butoxy)-2-{4,27-dimethyl-32-thia-1,5,7,8,11-pentaazahexacyclo[25.2.2.1^6,9.1^10,13.0^2,7.0^15,20]tritriaconta-2,4,6(33),8,10,12,15(20),16,18-nonaen-3-yl}acetic acid] reads 41 nM.

Consider `Cc1nc2cc3nn2c(c1[C@H](OC(C)(C)C)C(=O)O)N1CCC(C)(CC1)OC/C=C/COc1ccccc1Cc1cnc-3o1` [Example 10, (2S)-2-(tert-Butoxy)-2-[(23E)-4,27-dimethyl-21,26,32-trioxa-1,5,7,8,11-pentaazahexacyclo[25.2.2.1^6,9.1^10,13.0^2,7.0^15,20]tritriaconta-2,4,6(33),8,10,12,15 (20),16,18,23-decaen-3-yl]acetic acid], for which the EC50 is 2 nM. Take `Cc1nc2cc3nn2c(c1[C@H](OC(C)(C)C)C(=O)O)N1CCC(C)(CC1)OC/C=C/CCOc1ccccc1Cc1cnn-3c1` [Example 31, (2S)-2-(tert-Butoxy)-2-[(24E)-4,28-dimethyl-21,27-dioxa-1,5,7,8,10,11-hexaazahexacyclo[26.2.2.1^6,9.1^10,13.0^2,7.0^15,20]tetratriaconta-2,4,6(34),8,11,13(33),15(20),16,18,24-decaen-3-yl]acetic acid]: the concentration giving a half-maximal response (EC50) was 2 nM. Take `Cc1nc2cc3nn2c(c1[C@H](OC(C)(C)C)C(=O)O)N1CCC(C)(CC/C=C\CCOc2ccccc2Cc2cnn-3c2)CC1` [Example 35, (2S)-2-(tert-Butoxy)-2-[(24Z)-4,28-dimethyl-21-oxa-1,5,7,8,10,11-hexaazahexacyclo[26.2.2.1^6,9.1^10,13.0^2,7.0^15,20]tetratriaconta-2,4,6(34),8,11,13(33),15(20),16,18,24-decaen-3-yl]acetic acid]: the EC50 came to 20 nM. The result for `Cc1nc2cc3nn2c(c1[C@H](OC(C)(C)C)C(=O)O)N1CCC(C)(/C=C/CCCCc2ccccc2Cc2cnc-3s2)CC1` [Example 13, (2S)-2-(tert-Butoxy)-2-[(25E)-4,27-dimethyl-32-thia-1,5,7,8,11-pentaazahexacyclo[25.2.2.1^6,9.1^10,13.0^2,7.0^15,20]tritriaconta-2,4,6(33),8,10,12,15(20),16,18,25-decaen-3-yl]acetic acid] reads 12 nM; that for `Cc1nc2cc3nn2c(c1[C@H](OC(C)(C)C)C(=O)O)N1CCC(C)(CC1)OC/C=C\CCc1ccccc1Cc1cnc-3s1` (single isomer, unassigned) [Example 2], 2 nM. The value for `Cc1nc2cc3nn2c(c1[C@H](OC(C)(C)C)C(=O)O)N1CCC(C)(CC1)OCC=CCOc1ccccc1Cc1cnc-3s1` [Example 7, (2S)-2-(tert-Butoxy)-2-[4,27-dimethyl-21,26-dioxa-32-thia-1,5,7,8,11-pentaazahexacyclo[25.2.2.1^6,9.1^10,13.0^2,7.0^15,20]tritriaconta-2,4,6(33),8,10,12,15(20),16,18,23-decaen-3-yl]acetic acid] was 6 nM; that for `Cc1nc2cc3nn2c(c1[C@H](OC(C)(C)C)C(=O)O)N1CCC(C)(CC/C=C\C[C@@H](C)Oc2cc(F)ccc2Cc2cnc-3s2)CC1` [Example 20, (2S)-2-(tert-Butoxy)-2-[(22R,24Z)-18-fluoro-4,22,28-trimethyl-21-oxa-33-thia-1,5,7,8,11-pentaazahexacyclo[26.2.2.1^6,9.1^10,13.0^2,7.0^15,20]tetratriaconta-2,4,6(34),8,10,12,15(20),16,18,24-decaen-3-yl]acetic acid] was 32 nM; that for `Cc1nc2cc3nn2c(c1[C@H](OC(C)(C)C)C(=O)O)N1CCC(C)(CC1)OC/C=C/Cc1ccccc1Cc1cnc-3s1` (single isomer, unassigned) [Example 1] was 2 nM. Consider `Cc1nc2cc3nn2c(c1[C@H](OC(C)(C)C)C(=O)O)N1CCC(C)(CC/C=C/CCOc2ccccc2Cc2cnn-3c2)CC1` [Example 34, (2S)-2-(tert-Butoxy)-2-[(24E)-4,28-dimethyl-21-oxa-1,5,7,8,10,11-hexaazahexacyclo[26.2.2.1^6,9.1^10,13.0^2,7.0^15,20]tetratriaconta-2,4,6(34),8,11,13(33),15(20),16,18,24-decaen-3-yl]acetic acid], for which the EC50 came to 8 nM. Turning to `Cc1nc2cc3nn2c(c1[C@H](OC(C)(C)C)C(=O)O)N1CCC(C)(/C=C/CCCc2cc(F)ccc2Cc2cnc-3s2)CC1` (single isomer, unassigned) [Example 16], the EC50 came to 12 nM. `Cc1nc2cc3nn2c(c1[C@H](OC(C)(C)C)C(=O)O)N1CCC(C)(CC/C=C/CCc2cc(F)ccc2Cc2cnc-3s2)CC1` (single isomer, unassigned) [Example 17]: the EC50 was determined as 18 nM.

In the case of `Cc1nc2cc3nn2c(c1[C@H](OC(C)(C)C)C(=O)O)N1CCC(C)(CC/C=C\CCc2ccc(F)cc2Cc2cnc-3s2)CC1` (single isomer, unassigned) [Example 22], the 50% effective concentration (EC50) was 35 nM.

As to `Cc1nc2cc3nn2c(c1[C@H](OC(C)(C)C)C(=O)O)N1CCC(C)(CC1)OC/C=C\CCOc1ccccc1Cc1cnn-3c1` [Example 32, (2S)-2-(tert-butoxy)-2-[(24Z)-4,28-dimethyl-21,27-dioxa-1,5,7,8,10,11-hexaazahexacyclo[26.2.2.1^6,9.1^10,13.0^2,7.0^15,20]tetratriaconta-2,4,6(34),8,11,13(33),15(20),16,18,24-decaen-3-yl]acetic acid], the EC50 is 6 nM.
